According to patent EP1368050B1, “VIRUS DERIVED ANTIMICROBIAL PEPTIDES” (priority 2001, dated 2008):
Residues, ends and D or L forms follow the SMILES beside them.

Key:
[1] = test system: Ca^2+-saturated calmodulin; details: host cell Ca^2+-saturated calmodulin; cited from earlier work
[2] = test system: Pseudomonas aeruginosa; details: 1x10^5 colony-forming units; cited from earlier work
[3] = test system: Staphylococcus aureus; details: 1x10^5 colony-forming units; cited from earlier work
[4] = test system: differentiated primary human airway epithelial cells; test: Co-culture model: epithelial cell toxicity by transepithelial resistance; assay type: cell-based; details: at a decrease in bacterial counts by two orders of magnitude, Figure 9
Description: The antimicrobial peptides of the invention display selective toxicity to target microorganisms and minimal toxicity to mammalian cells. Determining the toxicity of the peptides claimed in this invention on mammalian cells is preferably performed using tissue culture assays. For mammalian cells, such assay methods include, inter alia, trypan blue exclusion and MTT assays (see Moore et al., 1994, Peptide Research 7:265-269). […] In addition, the disruption of the transepithelial resistance (Rte) of a cell monolayer that have formed tight junctions can be monitored. […]
Preparation of eukaryotic cells. […] In order to release viable bacteria, trypsin/EDTA was added and these preparations were plated on standard bacteriologic media to quantify bacterial survival. Similarly prepared cells were monitored for peptide toxicity by measuring transepithelial resistance. […]
Based on above in vitro findings, WLSA-5 (SEQ ID NO:3) was tested in a scenario that more accurately assessed its selective toxicity. […] The ability of peptide to kill bacteria is monitored as a function of viable bacteria associated with the epithelial cells after peptide exposure. […]

Row | SMILES | affinity for calmodulin [1] | time to nearly sterilize a suspension [2] | time to nearly sterilize a suspension [3] | change in transepithelial resistance [4]
1 | CC[C@H](C)[C@H](NC(=O)[C@H](C)NC(=O)[C@H](CCCNC(=N)N)NC(=O)[C@H](CS)NC(=O)[C@H](C)NC(=O)CNC(=O)[C@H](CCC(N)=O)NC(=O)[C@@H](NC(=O)[C@@H](NC(=O)[C@H](CCC(=O)O)NC(=O)[C@@H](NC(=O)[C@@H](NC(=O)[C@@H](N)CCCNC(=N)N)C(C)C)[C@@H](C)CC)C(C)C)C(C)C)C(=O)N[C@@H](CCCNC(=N)N)C(=O)N[C@@H](Cc1c[nH]cn1)C(=O)N[C@H](C(=O)N1CCC[C@H]1C(=O)N[C@@H](CCCNC(=N)N)C(=O)N[C@@H](CCCNC(=N)N)C(=O)N[C@H](C(=O)N[C@@H](CCCNC(=N)N)C(=O)N[C@@H](CCC(N)=O)C(=O)NCC(=O)N[C@@H](CC(C)C)C(=O)N[C@@H](CCC(=O)O)C(=O)N[C@@H](CCCNC(=N)N)C(=O)N[C@H](C(=O)N[C@@H](CC(C)C)C(=O)O)[C@@H](C)CC)[C@@H](C)CC)[C@@H](C)CC [LLP1] (H-RVIEVVQGACRAIRHIPRRIRQGLERIL-OH; N-terminus and C-terminus assumed) | near nanomolar affinity | ≤ 60 s | ≤ 60 s | –
2 | CC[C@H](C)[C@H](NC(=O)[C@H](C)NC(=O)[C@H](CCCNC(=N)N)NC(=O)[C@H](CS)NC(=O)[C@H](Cc1c[nH]c2ccccc12)NC(=O)[C@H](CCCNC(=N)N)NC(=O)[C@H](CCC(N)=O)NC(=O)[C@@H](NC(=O)[C@@H](NC(=O)[C@H](CCCNC(=N)N)NC(=O)[C@@H](NC(=O)[C@H](Cc1c[nH]c2ccccc12)NC(=O)[C@@H](N)CCCNC(=N)N)[C@@H](C)CC)C(C)C)C(C)C)C(=O)N[C@@H](CCCNC(=N)N)C(=O)N[C@@H](Cc1c[nH]cn1)C(=O)N[C@H](C(=O)N[C@@H](Cc1c[nH]c2ccccc12)C(=O)N[C@@H](CCCNC(=N)N)C(=O)N[C@@H](CCCNC(=N)N)C(=O)N[C@H](C(=O)N[C@@H](CCCNC(=N)N)C(=O)N[C@@H](CCC(N)=O)C(=O)NCC(=O)N[C@@H](CC(C)C)C(=O)N[C@@H](CCCNC(=N)N)C(=O)N[C@@H](CCCNC(=N)N)C(=O)N[C@@H](Cc1c[nH]c2ccccc12)C(=O)N[C@@H](CC(C)C)C(=O)N[C@@H](CCCNC(=N)N)C(=O)N[C@H](C(=O)N[C@H](C(=O)O)C(C)C)C(C)C)[C@@H](C)CC)[C@@H](C)CC [WLSA-5] (H-RWIRVVQRWCRAIRHIWRRIRQGLRRWLRVV-OH) | – | – | – | less than 50%
